Measured values as given in patent US20100152291A1, “PRODUCTION METHOD OF CAPSINOID BY DEHYDRATING CONDENSATION, STABILIZING METHOD OF CAPSINOID, AND CAPSINOID COMPOSITION” (AJINOMOTO CO., INC., priority 2005, published 2010).
Each block holds one molecule with its values, some of them ahead of it.

Key:
[1] = Stability of capsinoid containing fatty acid, preserved in hexane at 5° C., purity by HPLC; assay type: physicochemical
Protocol: For example, dihydrocapsiate was synthesized using a small excess of fatty acid, and dihydrocapsiate obtained by preparatively separating together with the excess fatty acid remaining in about 2 wt % relative to dihydrocapsiate was analyzed by HPLC.
(§1) The HPLC measurement conditions of capsinoid are as follows. HPLC conditions: column: Inertsil C8 3 u μm (diameter 4.0 mm×100 mm) eluent: A mixed solvent of eluents A, B shown below and a buffer was eluted by gradient elution method. […]
(§2) eluent A: CH3CN:buffer=80:20 eluent B: CH3CN:buffer=0:100 […]
(§3) temperature: room temperature
Capsiate obtained in the same manner as in Example 5, which contained 3.2 wt % of fatty acid, was analyzed by HPLC to find the purity of 97.8 area %. This capsiate was preserved in a hexane solvent at 5° C. for 30 days and analyzed by HPLC.
Dihydrocapsiate obtained in the same manner as in Example 15, which contained 2.0 wt % of fatty acid, was analyzed by HPLC to find 99.2 area %. This dihydrocapsiate was preserved in a hexane solvent at 5° C. for 30 days and analyzed by HPLC.

[2] = Stability of vanillyl decanoate in acetonitrile with or without decanoic acid, purity by HPLC; assay type: physicochemical
Excerpt: When ester compound (3) is separated and purified by column chromatography, fatty acid (1) present in excess in the reaction mixture has an Rf value similar to that of ester compound (3); therefore, the separation and purification of ester compound (3) is associated with difficulty. […] For example, when vanillyl decanoate was synthesized from decanoic acid and vanillyl alcohol, separated and purified from decanoic acid by silica gel column chromatography to give pure vanillyl decanoate, which was dissolved in acetonitrile and analyzed by HPLC. As a result, the purity of vanillyl decanoate was 95.6 area %. However, when the sample was reanalyzed 62 hours later, the purity decreased to 82.0 area %. […] Vanillyl decanoate is considered to have become unstable upon separation from decanoic acid. Therefore, fatty acid (1), difficult to be separated from ester compound (3), is preferably left coexisted rather than being separated, from the aspect of stability of ester compound (3).
For example, when 9.1 wt % of decanoic acid was added, in acetonitrile, to pure vanillyl decanoate separated from decanoic acid, the purity of vanillyl decanoate was 97.6 area % even after 19.5 hours and the purity was maintained.
as §1, §2, §3
Vanillyl decanoate was separately synthesized from vanillyl alcohol and decanoic acid, and its stability was examined. Decanoic acid was separated by silica gel column chromatography, and the purified product was dissolved in acetonitrile and analyzed by […]
HPLC to find 95.6 area %. When the sample was reanalyzed 62 hours later, the purity decreased to 82.0 area %, and vanillyl decanoate was confirmed to have been decomposed.
Decanoic acid was separated by silica gel column chromatography, and the purified product, vanillyl decanoate, was dissolved in acetonitrile and analyzed by HPLC 9 hours later to find 90.4 area %. To the acetonitrile solution of the purified product, vanillyl decanoate, was added 9.1 wt % of decanoic acid, and the mixture was analyzed by HPLC 19.5 hours later to find 97.6 area %, showing increase in the purity as compared to the absence of decanoic acid addition. Similarly, 16.7 wt %, 28.7 wt % and 44.8 wt % of decanoic acid was added to vanillyl decanoate to result in higher purities of 98.1 area %, 98.1 area % and 97.9 area % as compared to the absence of decanoic acid addition.

purity by HPLC ([1]; containing 3.2 wt % of fatty acid, before preservation): 97.8 area % | purity by HPLC ([1]; containing 3.2 wt % of fatty acid, preserved in hexane at 5° C. for 30 days): 97.6 area %
SMILES: COc1cc(COC(=O)CCCC/C=C/C(C)C)ccc1O [capsiate]

purity by HPLC ([2]; acetonitrile solution, 9.1 wt % of decanoic acid added, 19.5 hours later): 97.6 area % | purity by HPLC ([2]; acetonitrile solution, 16.7 wt % of decanoic acid added): 98.1 area % | purity by HPLC ([2]; acetonitrile solution, 28.7 wt % of decanoic acid added): 98.1 area % | purity by HPLC ([2]; acetonitrile solution, 44.8 wt % of decanoic acid added): 97.9 area % | purity by HPLC ([2]; pure product separated from decanoic acid, dissolved in acetonitrile, first analysis): 95.6 area % | purity by HPLC ([2]; pure product separated from decanoic acid, in acetonitrile, reanalyzed 62 hours later): 82.0 area % | purity by HPLC ([2]; purified product without decanoic acid, in acetonitrile, 9 hours later): 90.4 area %
SMILES: CCCCCCCCCC(=O)OCc1ccc(O)c(OC)c1 [vanillyl decanoate]

purity by HPLC ([1]; containing 2.0 wt % of fatty acid, preserved in hexane at 5° C. for 30 days): 99.3 area % | time stably preserved without decomposition ([1]; with about 2 wt % excess fatty acid, in hexane at 5° C.): at least 30 days
SMILES: COc1cc(COC(=O)CCCCCCC(C)C)ccc1O [dihydrocapsiate]
